According to patent US20210137948A1, “TREATMENT OF INFECTIONS CAUSED BY NEISSERIA GONOCOCCUS USING A HALOGENATED SALICYLANILIDE” (priority 2018, published 2021):
In brackets after ≈: the same amount, converted by molar mass. Read-outs that look alike come from different tables or passages of the source.

Columns and labels:
rabbits = conditions: p.o.; cited from earlier work
[1] = test system: Neisseria gonorrhoeae CDC panel consisting of 48 isolates; assay: Agar dilution MIC, CDC panel of 48 isolates (Example 2); assay type: cell-based; conditions: for MIC: Neisseria gonorrhoeae
Description: Neisseria gonorrhoeae (Neisseria gonocossus) were tested for antimicrobial susceptibility using agar dilution as described by the Clinical and Laboratory Standards Institute (CLSI), see reference (4).
The concentrations tested for each compound encompass the reported interpretive breakpoints and consist of 8 or more doubling dilutions, ensuring that there is one dilution below the lowest value of QC.
GC agar base +1% defined growth supplement.
Initial screening strains: Neisseria gonorrhoeae CDC panel consisting of 48 isolates. The strains were provided by Clinical and Environmental Microbiology Branch, Division of Healthcare Quality Promotion, CDC (Atlanta, US).
Dilution scheme for reference method: Prepare intermediate 100× antimicrobial agent solutions by making successive serial twofold dilutions. Then, add one part of the 100× antimicrobial solution to […] of molten agar. Plates containing no antimicrobial agent solutions are made for use as growth controls. It is important that no longer than one hour elapses between the time that the stock solution is thawed, the dilutions are prepared and added to the base medium and the plates are poured, see reference (5).
• Add appropriate dilutions of antimicrobial solution to molten test agars that have been allowed to equilibrate in a water bath to 50° C. • Mix the agar and antimicrobial solution thoroughly and pour (20 mL) into Petri dishes on a level surface. Pour quickly after mixing to prevent cooling and partial solidification in the mixing container. Avoid generating bubbles when mixing. • Allow the agar to solidify at room temperature and store them in sealed plastic bags at 2 to 8° C. for up to five days. Preferably use with 24 hours. • Allow plates stored at 2 to 8° C. to equilibrate to room temperature before use. Make certain that the agar surface is dry before inoculating the plates. If necessary, place the plates in an incubator or laminar flow hood for approximately 30 minutes with their lids ajar to hasten drying of the agar surface.
Inoculum preparation: Prepare a standardized inoculum for the agar dilution method by suspending isolated colonies of Neisseria gonorrhoeae selected from an 18-24 hour-old chocolate agar plate directly in Mueller Hinton Broth (MHB) to achieve the density equivalent to a 0.5 McFarland standard and adjusted to obtain a cell density of ˜1-2×10^8 CFU/mL. For N. gonorrhoeae, the McFarland solutions are made at a reading of ˜0.80 in densitometer (Grant Instruments DEN-1B Densitometer) because these values have been evaluated and correspond to the desired CFU/mL count.
Dilution of inoculum suspension: Cultures adjusted to the 0.5 McFarland standard contain approximately 1 to 2×10^8 CFU/mL with most species, and the final inoculum required is 10^4 CFU per spot. When using replicators with 3-mm pins that deliver ˜2.5 μL, dilute the 0.5 McFarland suspension 1:10 in sterile MHB to obtain a concentration of 10^7 CFU/mL. The final inoculum on the agar will be approximately 10^4 CFU per spot. Use the adjusted suspensions for final inoculation within 60 minutes of preparation, see reference (5).
The following procedure was followed: • Arrange the tubes containing the adjusted and diluted bacterial suspensions (10^7 CFU/mL) in order in a rack. Place an aliquot of each well-mixed suspension into the corresponding well in the replicator inoculum block (if being used). • Mark the agar plates for orientation of the inoculum spots. • Apply an aliquot of each inoculum (2.5 μL) to the agar surface, either with an inocula-replicating device or pipette, to obtain a final concentration of ˜10^4 CFU/spot. • Inoculate a growth-control plate (no antimicrobial agent) first and then, starting with the lowest concentration, inoculate the plates containing the different antimicrobial concentrations. […]

mice = conditions: p.o., cited from earlier work
rats = conditions: p.o., cited from earlier work

Compound: O=C(Nc1ccc(Oc2ccc(Cl)cc2)c(Cl)c1)c1cc(I)cc(I)c1O [Rafoxanide, rafoxanide]
- LD50 (rabbits): 3200 mg/kg
- MIC ([1]; read-out: MIC value, for 46 of the 48 isolates of N. gonorrhoeae): ≤ 50.2 mg/L
- MIC ([1]; read-out: Minimal inhibitory concentration, Neisseria gonorrhoeae strain CDC # 165): ≤ 0.25 mg/L
- MIC ([1]; read-out: Minimal inhibitory concentration, Neisseria gonorrhoeae strain CDC # 166): ≤ 0.25 mg/L
- MIC ([1]; read-out: Minimal inhibitory concentration, Neisseria gonorrhoeae strain CDC # 167): ≤ 0.25 mg/L
- MIC ([1]; read-out: Minimal inhibitory concentration, Neisseria gonorrhoeae strain CDC # 169): ≤ 0.25 mg/L
- MIC ([1]; read-out: Minimal inhibitory concentration, Neisseria gonorrhoeae strain CDC # 170): ≤ 0.25 mg/L
- MIC ([1]; read-out: Minimal inhibitory concentration, Neisseria gonorrhoeae strain CDC # 171): ≤ 0.25 mg/L
- MIC ([1]; read-out: Minimal inhibitory concentration, Neisseria gonorrhoeae strain CDC # 172): ≤ 0.25 mg/L
- MIC ([1]; read-out: Minimal inhibitory concentration, Neisseria gonorrhoeae strain CDC # 173): ≤ 0.25 mg/L
- MIC ([1]; read-out: Minimal inhibitory concentration, Neisseria gonorrhoeae strain CDC # 174): ≤ 0.25 mg/L
- MIC ([1]; read-out: Minimal inhibitory concentration, Neisseria gonorrhoeae strain CDC # 175): ≤ 0.25 mg/L
- MIC ([1]; read-out: Minimal inhibitory concentration, Neisseria gonorrhoeae strain CDC # 176): ≤ 0.25 mg/L
- MIC ([1]; read-out: Minimal inhibitory concentration, Neisseria gonorrhoeae strain CDC # 177): ≤ 0.25 mg/L
- MIC ([1]; read-out: Minimal inhibitory concentration, Neisseria gonorrhoeae strain CDC # 178): ≤ 0.25 mg/L
- MIC ([1]; read-out: Minimal inhibitory concentration, Neisseria gonorrhoeae strain CDC # 179): ≤ 0.25 mg/L
- MIC ([1]; read-out: Minimal inhibitory concentration, Neisseria gonorrhoeae strain CDC # 180): ≤ 0.25 mg/L
- MIC ([1]; read-out: Minimal inhibitory concentration, Neisseria gonorrhoeae strain CDC # 181): ≤ 0.25 mg/L
- MIC ([1]; read-out: Minimal inhibitory concentration, Neisseria gonorrhoeae strain CDC # 182): 2 mg/L (≈ 3.19 µM)
- MIC ([1]; read-out: Minimal inhibitory concentration, Neisseria gonorrhoeae strain CDC # 183): ≤ 0.25 mg/L
- MIC ([1]; read-out: Minimal inhibitory concentration, Neisseria gonorrhoeae strain CDC # 184): ≤ 0.25 mg/L
- MIC ([1]; read-out: Minimal inhibitory concentration, Neisseria gonorrhoeae strain CDC # 185): ≤ 0.25 mg/L
- MIC ([1]; read-out: Minimal inhibitory concentration, Neisseria gonorrhoeae strain CDC # 186): ≤ 0.25 mg/L
- MIC ([1]; read-out: Minimal inhibitory concentration, Neisseria gonorrhoeae strain CDC # 187): ≤ 0.25 mg/L
- MIC ([1]; read-out: Minimal inhibitory concentration, Neisseria gonorrhoeae strain CDC # 188): ≤ 0.25 mg/L
- MIC ([1]; read-out: Minimal inhibitory concentration, Neisseria gonorrhoeae strain CDC # 189): ≤ 0.25 mg/L
- MIC ([1]; read-out: Minimal inhibitory concentration, Neisseria gonorrhoeae strain CDC # 190): ≤ 0.25 mg/L
- MIC ([1]; read-out: Minimal inhibitory concentration, Neisseria gonorrhoeae strain CDC # 191): ≤ 0.25 mg/L
- MIC ([1]; read-out: Minimal inhibitory concentration, Neisseria gonorrhoeae strain CDC # 192): ≤ 0.25 mg/L
- MIC ([1]; read-out: Minimal inhibitory concentration, Neisseria gonorrhoeae strain CDC # 193): ≤ 0.25 mg/L
- MIC ([1]; read-out: Minimal inhibitory concentration, Neisseria gonorrhoeae strain CDC # 194): ≤ 0.25 mg/L
- MIC ([1]; read-out: Minimal inhibitory concentration, Neisseria gonorrhoeae strain CDC # 195): ≤ 0.25 mg/L
- MIC ([1]; read-out: Minimal inhibitory concentration, Neisseria gonorrhoeae strain CDC # 196): ≤ 0.25 mg/L
- MIC ([1]; read-out: Minimal inhibitory concentration, Neisseria gonorrhoeae strain CDC # 198): ≤ 0.25 mg/L
- MIC ([1]; read-out: Minimal inhibitory concentration, Neisseria gonorrhoeae strain CDC # 199): ≤ 0.25 mg/L
- MIC ([1]; read-out: Minimal inhibitory concentration, Neisseria gonorrhoeae strain CDC # 200): ≤ 0.25 mg/L
- MIC ([1]; read-out: Minimal inhibitory concentration, Neisseria gonorrhoeae strain CDC # 201): ≤ 0.25 mg/L
- MIC ([1]; read-out: Minimal inhibitory concentration, Neisseria gonorrhoeae strain CDC # 202): ≤ 0.25 mg/L
- MIC ([1]; read-out: Minimal inhibitory concentration, Neisseria gonorrhoeae strain CDC # 203): ≤ 0.25 mg/L
- MIC ([1]; read-out: Minimal inhibitory concentration, Neisseria gonorrhoeae strain CDC # 204): 0.5 mg/L (≈ 0.799 µM)
- MIC ([1]; read-out: Minimal inhibitory concentration, Neisseria gonorrhoeae strain CDC # 205): ≤ 0.25 mg/L
- MIC ([1]; read-out: Minimal inhibitory concentration, Neisseria gonorrhoeae strain CDC # 206): ≤ 0.25 mg/L
- MIC ([1]; read-out: Minimal inhibitory concentration, Neisseria gonorrhoeae strain CDC # 207): ≤ 0.25 mg/L
- MIC ([1]; read-out: Minimal inhibitory concentration, Neisseria gonorrhoeae strain CDC # 208): ≤ 0.25 mg/L
- MIC ([1]; read-out: Minimal inhibitory concentration, Neisseria gonorrhoeae strain CDC # 209): ≤ 0.25 mg/L
- MIC ([1]; read-out: Minimal inhibitory concentration, Neisseria gonorrhoeae strain CDC # 210): ≤ 0.25 mg/L
- MIC ([1]; read-out: Minimal inhibitory concentration, Neisseria gonorrhoeae strain CDC # 211): ≤ 0.25 mg/L
- MIC ([1]; read-out: Minimal inhibitory concentration, Neisseria gonorrhoeae strain CDC # 212): ≤ 0.25 mg/L
- MIC ([1]; read-out: Minimal inhibitory concentration, Neisseria gonorrhoeae strain CDC # 213): ≤ 0.25 mg/L
- MIC ([1]; read-out: Minimal inhibitory concentration, Neisseria gonorrhoeae strain CDC # 214): ≤ 0.25 mg/L
- in vitro activity (in words) ([1]; against N. gonococcus (N. gonorrhoeae), Example 2 conclusion): Good in vitro activity
- LD50, median (mice; median of the studies): 266 mg/kg
- LD50 (mice): 232 to 300 mg/kg
- LD50, median (rats; median of the studies): > 1490 mg/kg
- LD50 (rats): 980->2000 mg/kg
